{"source": "patent US9439414B2", "about": "“Sperm diluent solution and method for artificial insemination using same” (HIROSHIMA UNIVERSITY, priority 2009, dated 2016)", "key": {"pig sperm [1]": {"tested_on": "pig sperm", "test": "Sperm acrosomal damage rate (FITC-peanut lectin staining)", "assay_type": "cell-based", "conditions": "EGTA 0, 3, 6, 9 mM in Modena solution", "description": "0-mM-EGTA medium, 3-mM-EGTA medium, 6-mM-EGTA medium and 9-mM-EGTA medium were prepared. As the 0-mM-EGTA medium, Modena solution was used as it is. Further, the 3-mM-EGTA medium, 6-mM-EGTA medium and 9-mM-EGTA medium were prepared by adding EGTA to Modena solution to attain EGTA concentrations of 3 mM, 6 mM and 9 mM, respectively, in the medium. Since addition of EGTA results in more acidic pH of the medium, NaOH was added to the medium to adjust pH to 7.0 to 7.1.\nTo each medium, frozen sperm were added after thawing as in Experimental Example 1, and the sperm was cultured. The culturing time was 1 hour, 3 hours or 6 hours.\nThe measurement of the sperm motility and detection of phosphorylation of tyrosine residues of the sperm proteins were carried out in the same manner as described above. The measurement of the sperm acrosomal damage rate was carried out as follows. On a slide glass, 5 μl of the medium was smeared, followed by air drying and 10 minutes of fixation with 99% methanol. After drying the methanol, marking was done with a liquid pen. FITC-peanut lectin was added to the smeared sperm (about 30 μl per sample), followed by 30 minutes of incubation at 37° C. in a moist atmosphere. Thereafter, the sperm were washed with PBS (5 minutes×3 times) and embedded in DAPI (VECTOR, VECTASHIELD with DAPI, H-1200) and then in manicure, followed by observation of the sperm."}, "pig sperm [2]": {"tested_on": "pig sperm", "test": "Sperm motility by motility analyzer (CASA)", "assay_type": "cell-based", "conditions": "EGTA 0, 3, 6, 9 mM added to Modena solution (6.3 mM EDTA); 1, 3 or 6 hours", "description": "Media having concentrations of EDTA of 0 mM, 3 mM, 6.3 mM and 12 mM were prepared. The 0-mM-EDTA medium and the 3-mM-EDTA medium were prepared by removing EDTA-2Na from Modena solution and adjusting the EDTA concentration to 0 mM and 3 mM, respectively. As the 6.3-mM-EDTA medium, Modena solution was used as it is. Further, the 12-mM-EDTA medium was prepared by adding EDTA-2Na to Modena solution to attain an EDTA concentration of 12 mM.\nTo each medium, frozen sperm were added after thawing as in Experimental Example 1, and the sperm were cultured. The culturing time was 1 hour, 3 hours or 6 hours.\nAfter the culture, the sperm motility was calculated using a motility analyzer (computer-assisted sperm motility analysis (CASA) system). On a plate prewarmed to 38° C., 5 μl of the medium after the culture was placed, and the ratio of moving sperm was analyzed using a computer.\n0-mM-EGTA medium, 3-mM-EGTA medium, 6-mM-EGTA medium and 9-mM-EGTA medium were prepared. As the 0-mM-EGTA medium, Modena solution was used as it is. Further, the 3-mM-EGTA medium, 6-mM-EGTA medium and 9-mM-EGTA medium were prepared by adding EGTA to Modena solution to attain EGTA concentrations of 3 mM, 6 mM and 9 mM, respectively, in the medium. Since addition of EGTA results in more acidic pH of the medium, NaOH was added to the medium to adjust pH to 7.0 to 7.1. […]"}, "mother pigs and piglets": {"tested_on": "mother pigs and piglets", "test": "Health of mother pigs and piglets after artificial insemination with the cortisol-containing sperm diluent", "assay_type": "in vivo, pig", "conditions": "5 μg cortisol injected to the uterus", "description": "Although the above adrenocortical hormone (a steroid hormone such as cortisol) is usually injected at a dose of 5 to 50 mg per individual for therapy of livestock, only 5 μg was injected to the uterus in the artificial insemination of the present Example. Thus, since this dose is about 1,000 to 10,000 times smaller than the dose in the cases of therapeutic use, it is thought that the meat of the mother pig and the fetuses in the uterus are not affected."}}, "data": [{"smiles": "O=C(O)CN(CCOCCOCCN(CC(=O)O)CC(=O)O)CC(=O)O", "note": "[EGTA, ethylene glycol Bis(2-aminoethyl)-N,N,N′,N′-tetraacetic acid]", "values": [{"measurement": "sperm acrosomal damage rate (FIG. 5)", "setting": "pig sperm [1]", "value": "low"}, {"measurement": "sperm motility (FIG. 3)", "setting": "pig sperm [2]", "value": "high"}]}, {"smiles": "C[C@]12CCC(=O)C=C1CC[C@@H]1[C@@H]2[C@@H](O)C[C@@]2(C)[C@H]1CC[C@]2(O)C(=O)CO", "note": "[cortisol]", "values": [{"measurement": "deformed piglets after the delivery", "setting": "mother pigs and piglets", "value": "no deformed piglet was found"}]}]}
